Measurements published in patent publication US8173808B2, “Substituted naphthalenyl-pyrimidine compounds” (ArQule, Inc., priority 2009, dated 2012).

Tests used:
DLD-1 = assay: MTS assay, DLD-1; assay type: cell-based; settings: Homo sapiens, 72 hours, 1 Percent FBS
Procedure: (§1) Cells were maintained at 37° C., 5% CO2 in DMEM media supplemented with 1% fetal bovine serum, penicillin/streptomycin and fungizone (Invitrogen). Cells were seeded into 96-well tissue culture plates at 3000 per well and cultured at 37° C. for 18 hours. Test compounds were dissolved and diluted to 300× in DMSO then diluted 1:40 in DMEM. Cells were incubated with test compounds for 72 hours followed by incubation with tetrazolium compound (3-(4,5-dimethylthiazol-2-yl)-5-(3-carboxymethoxyphenyl)-2-(4-sulfophenyl)-2H-tetrazolium, inner salt; MTS) and the electron coupling reagent, phenazine methosulfate (PMS) for 4 hours. […] The ability of compounds to inhibit cell growth in this assay is correlated with the reduction of dehydrogenase enzyme activity found in metabolically active cells. The measurement of the absorbance of the formazan was assessed using a Victor (Perkin Elmer) microplate reader at 492 nm. The calculated IC50 value is the concentration of the test compound that causes a 50% decrease in the absorbance.

MDA-MB-231 = assay: MTS assay, MDA-MB-231; assay type: cell-based; settings: Homo sapiens, 72 hours, 1 Percent FBS
Procedure: as §1

| SMILES | inhibition at 10 µM (DLD-1) | inhibition at 10 µM (MDA-MB-231) |
| --- | --- | --- |
| COc1ccc2cc(-c3ccnc(NC4CCN(C)CC4)n3)cc(N3CCOCC3)c2c1 [Compound 7, 4-(6-methoxy-4-morpholin-4-yl-2-naphthyl)-N-(1-methylpiperidin-4-yl)pyrimidin-2-amine] | 68% | 62% |
| COc1ccc2cc(-c3ccnc(NCc4ccc(OC)c(OC)c4)n3)cc(N3CCOCC3)c2c1 [Compound 9, N-(3,4-dimethoxybenzyl)-4-(6-methoxy-4-morpholin-4-yl-2-naphthyl)pyrimidin-2-amine] | 99% | 82% |
| CCN1CCCC(Nc2nccc(-c3cc(N4CCOCC4)c4cc(OC)ccc4c3)n2)C1 (centres unmarked) [Compound 14, N-(1-ethylpiperidin-3-yl)-4-(6-methoxy-4-morpholin-4-yl-2-naphthyl)pyrimidin-2-amine] | 98% | 99% |
| COc1ccc2cc(-c3ccnc(NCc4cncn4C)n3)cc(N3CCOCC3)c2c1 [Compound 16, 4-(6-methoxy-4-morpholin-4-yl-2-naphthyl)-N-[(1-methyl-1H-imidazol-5-yl)methyl]pyrimidin-2-amine] | 98% | 96% |
| COc1ccc2cc(-c3ccnc(NCCc4ccc(OC)c(OC)c4)n3)cc(N3CCOCC3)c2c1 [Compound 18, N-[2-(3,4-dimethoxyphenyl)ethyl]-4-(6-methoxy-4-morpholin-4-yl-2-naphthyl)pyrimidin-2-amine] | 88% | 31% |
| COc1ccc2cc(-c3ccnc(NCCc4cccnc4)n3)cc(N3CCOCC3)c2c1 [Compound 21, 4-(6-methoxy-4-morpholin-4-yl-2-naphthyl)-N-(2-pyridin-3-ylethyl)pyrimidin-2-amine] | 97% | 99% |
| COCCNc1nccc(-c2cc(N3CCOCC3)c3cc(OC)ccc3c2)n1 [Compound 23, N-(2-methoxyethyl)-4-(6-methoxy-4-morpholin-4-yl-2-naphthyl)pyrimidin-2-amine] | 98% | 91% |
| COc1ccc2cc(-c3ccnc(NC4CCN(Cc5ccccc5)CC4)n3)cc(N3CCOCC3)c2c1 [Compound 24, N-(1-benzylpiperidin-4-yl)-4-(6-methoxy-4-morpholin-4-yl-2-naphthyl)pyrimidin-2-amine] | 97% | 95% |
| COc1ccc2cc(-c3ccnc(NCc4ccccn4)n3)cc(N3CCOCC3)c2c1 [Compound 25, 4-(6-methoxy-4-morpholin-4-yl-2-naphthyl)-N-(pyridin-2-ylmethyl)pyrimidin-2-amine] | 82% | 74% |
| COc1ccc2cc(-c3ccnc(NC4CC(C)(C)N(C)C(C)(C)C4)n3)cc(N3CCOCC3)c2c1 [Compound 26, 4-(6-methoxy-4-morpholin-4-yl-2-naphthyl)-N-(1,2,2,6,6-pentamethylpiperidin-4-yl)pyrimidin-2-amine] | 92% | 98% |
| COc1ccc(CNc2nccc(-c3cc(N4CCOCC4)c4cc(OC)ccc4c3)n2)cc1 [Compound 28, N-(4-methoxybenzyl)-4-(6-methoxy-4-morpholin-4-yl-2-naphthyl)pyrimidin-2-amine] | 98% | 99% |
| COc1ccc2cc(-c3ccnc(NCCN4CCCC4)n3)cc(N3CCOCC3)c2c1 [Compound 29, 4-(6-methoxy-4-morpholin-4-yl-2-naphthyl)-N-(2-pyrrolidin-1-ylethyl)pyrimidin-2-amine] | 81% | 76% |
| COc1ccc2cc(-c3ccnc(NCC(C)(C)CN(C)C)n3)cc(N3CCOCC3)c2c1 [Compound 30, N′-[4-(6-methoxy-4-morpholin-4-yl-2-naphthyl)pyrimidin-2-yl]-N,N,2,2-tetramethylpropane-1,3-diamine] | 63% | 78% |
| CCN(CC)CCCN1CCN(CC(=O)Nc2cc(-c3ccnc(NC)n3)cc3ccc(OC)cc23)CC1 [Compound 36, 2-{4-[3-(diethylamino)propyl]piperazin-1-yl}-N-{7-methoxy-3-[2-(methylamino)pyrimidin-4-yl]-1-naphthyl}acetamide] | 87% | 92% |
| CNc1nccc(-c2cc(NC(=O)CN3CCN(CCO)CC3)c3cc(OC)ccc3c2)n1 [Compound 38, 2-[4-(2-hydroxyethyl)piperazin-1-yl]-N-{7-methoxy-3-[2-(methylamino)pyrimidin-4-yl]-1-naphthyl}acetamide] | 98% | 98% |
| CNc1nccc(-c2cc(NC(=O)CN3CCN(c4ncncn4)CC3)c3cc(OC)ccc3c2)n1 [Compound 40, N-{7-methoxy-3-[2-(methylamino)pyrimidin-4-yl]-1-naphthyl}-2-[4-(1,3,5-triazin-2-yl)piperazin-1-yl]acetamide] | 54% | 40% |

| SMILES | inhibition at 10 µM (DLD-1) | inhibition at 10 µM (MDA-MB-231) |
| --- | --- | --- |
| CNc1nccc(-c2cc(NC(=O)CN3CCN(CC4CCN(C)CC4)CC3)c3cc(OC)ccc3c2)n1 [Compound 41, N-{7-methoxy-3-[2-(methylamino)pyrimidin-4-yl]-1-naphthyl}-2-{4-[(l-methylpiperidin-4-yl)methyl]piperazin-1-yl}acetamide] | 66% | 71% |
| CNc1nccc(-c2cc(NC(=O)CN3CCC(N4CCN(C)CC4)CC3)c3cc(OC)ccc3c2)n1 [Compound 45, N-{7-methoxy-3-[2-(methylamino)pyrimidin-4-yl]-1-naphthyl}-2-[4-(4-methylpiperazin-1-yl)piperidin-1-yl]acetamide] | 98% | 99% |
| CNc1nccc(-c2cc(NC(=O)CN3CCN(CCc4cccs4)CC3)c3cc(OC)ccc3c2)n1 [Compound 46, N-{7-methoxy-3-[2-(methylamino)pyrimidin-4-yl]-1-naphthyl}-2-{4-[2-(2-thienyl)ethyl]piperazin-1-yl}acetamide] | 99% | 99% |
| CNc1nccc(-c2cc(NC(=O)CNCC(C)(C)CO)c3cc(OC)ccc3c2)n1 [Compound 50, N~2~-(3-hydroxy-2,2-dimethylpropyl)-N-{7-methoxy-3-[2-(methylamino)pyrimidin-4-yl]-1-naphthyl}glycinamide] | 97% | 94% |
| CCCCN(C)CCNCC(=O)Nc1cc(-c2ccnc(NC)n2)cc2ccc(OC)cc12 [Compound 51, N~2~-{2-[butyl(methyl)amino]ethyl}-N-{7-methoxy-3-[2-(methylamino)pyrimidin-4-yl]-1-naphthyl}glycinamide] | 98% | 93% |
| CNc1nccc(-c2cc(NC(=O)CN3CCN(CC(=O)N(C)C)CC3)c3cc(OC)ccc3c2)n1 [Compound 52, 2-{4-[2-({7-methoxy-3-[2-(methylamino)pyrimidin-4-yl]-1-naphthyl}amino)-2-oxoethyl]piperazin-1-yl}-N,N-dimethylacetamide] | 99% | 96% |
| CNc1nccc(-c2cc(NC(=O)CNCCOC(C)C)c3cc(OC)ccc3c2)n1 [Compound 53, N~2~-(2-isopropoxyethyl)-N-{7-methoxy-3-[2-(methylamino)pyrimidin-4-yl]-1-naphthyl}glycinamide] | 92% | 81% |
| CNc1nccc(-c2cc(NC(=O)CNc3cccnc3)c3cc(OC)ccc3c2)n1 [Compound 54, N-{7-methoxy-3-[2-(methylamino)pyrimidin-4-yl]-1-naphthyl}-N~2~-pyridin-3-ylglycinamide] | 75% | 65% |
| CNc1nccc(-c2cc(NC(=O)CNc3ccncc3)c3cc(OC)ccc3c2)n1 [Compound 56, N-{7-methoxy-3-[2-(methylamino)pyrimidin-4-yl]-1-naphthyl}-N~2~-pyridin-4-ylglycinamide] | – | 50% |
| CNc1nccc(-c2cc(NC(=O)CNc3nc4ccccc4n3C)c3cc(OC)ccc3c2)n1 [Compound 58, N-{7-methoxy-3-[2-(methylamino)pyrimidin-4-yl]-1-naphthyl}-N~2~-(1-methyl-1H-benzimidazol-2-yl)glycinamide] | 98% | 99% |
| CNc1nccc(-c2cc(NC(=O)CNCCCN3CCN(C)CC3)c3cc(OC)ccc3c2)n1 [Compound 69, N-{7-methoxy-3-[2-(methylamino)pyrimidin-4-yl]-1-naphthyl}-N~2~-[3-(4-methylpiperazin-1-yl)propyl]glycinamide] | – | 40% |
| CNc1nccc(-c2cc(NC(=O)CN3CCN(c4ccncc4)CC3)c3cc(OC)ccc3c2)n1 [Compound 70, N-{7-methoxy-3-[2-(methylamino)pyrimidin-4-yl]-1-naphthyl}-2-(4-pyridin-4-ylpiperazin-1-yl)acetamide] | – | 37% |
| CNc1nccc(-c2cc(NC(=O)CN3CCN(CCCN4CCOCC4)CC3)c3cc(OC)ccc3c2)n1 [Compound 77, N-{7-methoxy-3-[2-(methylamino)pyrimidin-4-yl]-1-naphthyl}-2-[4-(3-morpholin-4-ylpropyl)piperazin-1-yl]acetamide] | – | 41% |
| COc1ccc2cc(-c3ccnc(NCc4cccc(C(F)(F)F)c4)n3)cc(NC(=O)OC(C)(C)C)c2c1 [Compound 90, tert-butyl [7-methoxy-3-(2-{[3-(trifluoromethyl)benzyl]amino}pyrimidin-4-yl)-1-naphthyl]carbamate] | – | 43% |
| COc1ccc2cc(-c3ccnc(NCCc4ccc(OC)c(OC)c4)n3)cc(NC(=O)OC(C)(C)C)c2c1 [Compound 95, tert-butyl [3-(2-{[2-(3,4-dimethoxyphenyl)ethyl]amino}pyrimidin-4-yl)-7-methoxy-1-naphthyl]carbamate] | – | 39% |
